Values of other authors as cited in US5629294A, “Compositions and methods for preventing adhesion formation” (University of Southern California, priority 1994, dated 1997).

Key:
[1] = tested on: platelet aggregation in response to ADP and collagen
[2] = tested on: platelet accumulation associated with the administration of a collagen substrate and ADP; settings: baboon model, RGDV given at 0.35, 0.68 or 1.31 μmol/min

Q: With RGDV as the substance, how does the “concentration necessary to effectively abolish platelet aggregation” value [1] read?
A: 100 µM

Q: And the platelet accumulation [2]?
A: dose-dependent reduction in platelet accumulation
